Experimental data from the SangsterLogP compilation.

Experiment: method code SF-AS, from DOI: 10.1016/s0008-6215(00)84247-0, PMID: 18283
Conditions: pH 7.5

Compared with `OC[C@H]1O[C@@H](SCCc2ccccc2)[C@H](O)[C@@H](O)C1O` (stereo in doubt), `OCC1OC(SCCCc2ccccc2)C(O)C(O)C1O` (stereo unspecified) is higher in logD: -0.1 for the first, 0.38 for the second.

`OC[C@H]1O[C@@H](Sc2ccccc2)[C@H](O)[C@@H](O)[C@H]1O` and `OC[C@H]1O[C@@H](SCc2ccccc2)[C@H](O)[C@@H](O)[C@H]1O` are within 0.2 log units of each other in logD: -0.56 for the first, -0.47 for the second.

Experiment: method code SF-CR, from DOI: 10.1016/s0008-6215(00)84247-0, PMID: 18283
Conditions: pH 7.5

Compared with `CC(C)S[C@@H]1O[C@H](CO)[C@H](O)[C@H](O)[C@H]1O`, `CCS[C@@H]1O[C@H](CO)[C@H](O)[C@H](O)[C@H]1O` is lower in logD: -1.26 for the first, -1.51 for the second.

Compared with `CCCCO[C@@H]1O[C@H](CO)[C@H](O)[C@H](O)[C@H]1O`, `CCCCCO[C@@H]1O[C@H](CO)[C@H](O)[C@H](O)[C@H]1O` is higher in logD: -1.04 for the first, -0.42 for the second.

First: CCCCCCCCS[C@@H]1O[C@H](CO)[C@H](O)[C@H](O)[C@H]1O
Second: CCCCCCCS[C@@H]1O[C@H](CO)[C@H](O)[C@H](O)[C@H]1O
The logD of the first is higher: 2.13 for the first, 1.5 for the second.

Going from `CCCCCCCO[C@@H]1O[C@H](CO)[C@H](O)[C@H](O)[C@H]1O` to `CCCCCCCCO[C@@H]1O[C@H](CO)[C@H](O)[C@H](O)[C@H]1O`, the logD rises from 0.73 to 1.46.

Going from `CCCO[C@@H]1O[C@H](CO)[C@H](O)[C@H](O)[C@H]1O` to `CCOC1O[C@H](CO)[C@H](O)[C@H](O)[C@H]1O` (stereo in doubt), the logD falls from -1.66 to -2.28.

Going from `CCCCCOC1C(O)C(O)OC(CO)C1O` (stereo unspecified) to `CCCCCOC1C(O)C(S)OC(CO)C1O` (stereo unspecified), the logD rises from -0.8 to -0.18.

First: CCCS[C@@H]1O[C@H](CO)[C@H](O)[C@H](O)[C@H]1O
Second: CCCCS[C@@H]1O[C@H](CO)[C@H](O)[C@H](O)[C@H]1O
The logD of the first is lower: -1.18 for the first, -0.54 for the second.

Compared with `CCCCCS[C@@H]1O[C@H](CO)[C@H](O)[C@H](O)[C@H]1O`, `CCCCCCS[C@@H]1O[C@H](CO)[C@H](O)[C@H](O)[C@H]1O` is higher in logD: 0.39 for the first, 0.86 for the second.

For `CCCCCCO[C@@H]1O[C@H](CO)[C@H](O)[C@H](O)[C@H]1O`, the logD was 0.16.
